Assay results from patent US5059624A, “Guanidine derivatives having hypotensive activity, composition containing them and process for obtaining them” (Consiglio Nazionale Delle Ricerche, priority 1988, dated 1991).
Like-named read-outs stand apart in the source and are kept apart here.

Columns and labels:
[1] = Lethal dose 50 (LD50) through i.p. route in mice; settings: mouse, in vivo, ip
Description: The lethal dose 50 (LD50) of guanido-I through i.p. route in mice turned out to be 57 mg±3.6 per kg.
The lethal dose 50 (LD50) of the diguanido-II through i.p. route in mice, turned out to be 7 mg±0.6 per kg.

Description for male Wistar rats: In order to check its activity, diguanido-II was dissolved in a 0.9 % sodium chloride solution and administered through "rapid" i.v. route in male Wistar rats, under general anaesthesia obtained by means of 10% ethyl urethan (i ml/hg).
The active ingredients called guanido-III, -IV, -V, as well as agmatine and galegine, were also tested, after having been administered through "rapid" i.v. route in male Wistar rats (weighing average 280±5 g) under general anaesthesia obtained by means of 10% ethyl uretan (1 ml/hg, i.p.). The general experimental conditions were exactly the same as previously mentioned for guanido-I and diguanido-II, so that the cardiovascular and respiratory effects could be compared.
The parameters measured are as follows: systolic and diastolic systemic arterial pressure (AP), heart rate (HR), maximum rate of increase in the left ventricular isovolumetric pressure (dp/dt), respiratory frequency (RF) and tidal volume (TV). The doses (in μg/kg body weight, referred to the active substance) varied from 50 μg/kg to 6,400 μg/kg (ratio=2.0); in some cases higher does have been employed.

Q: For `COc1ccc(C=CC(=O)NCCCCNC(=N)NCC=C(C)C)cc1OC` [guanido-I], which LD50 [1] is on record?
A: The LD50 was 57 mg/kg.

Q: What about the “Δ AP DIAST” value (male Wistar rats; 50 μg/kg i.v.) of the same molecule?
A: The value was -5 ± 1 mmHg.

Q: What about the “Δ AP SYST” value (male Wistar rats; 50 μg/kg i.v.) of the same molecule?
A: The value was -4 ± 2 mmHg.

Q: And the “Δ HR” value (male Wistar rats; 50 μg/kg i.v.)?
A: The value was “+8 ± 3 beats/min”.

Q: And the “Δ RF” value (male Wistar rats; 50 μg/kg i.v.)?
A: The value was “+6 ± 2 acts/min”.

Q: And the Δ dp/dt (male Wistar rats; 50 μg/kg i.v.)?
A: The Δ dp/dt was “+52 ± 8 mmHg/sec”.

Q: And the “Δ AP DIAST” value (male Wistar rats; 100 μg/kg i.v.)?
A: The value was -6 ± 2 mmHg.

Q: And the “Δ AP SYST” value (male Wistar rats; 100 μg/kg i.v.)?
A: The value was -6 ± 2 mmHg.

Q: What about the “Δ HR” value (male Wistar rats; 100 μg/kg i.v.) of the same molecule?
A: The value was “+10 ± 1 beats/min”.

Q: And the “Δ RF” value (male Wistar rats; 100 μg/kg i.v.)?
A: Its value is “+9 ± 4 acts/min”.

Q: And the Δ dp/dt (male Wistar rats; 100 μg/kg i.v.)?
A: The Δ dp/dt was “+141 ± 25 mmHg/sec”.

Q: And the “Δ AP DIAST” value (male Wistar rats; 200 μg/kg i.v.)?
A: The value was -10 ± 2 mmHg.

Q: What about the “Δ AP SYST” value (male Wistar rats; 200 μg/kg i.v.) of the same molecule?
A: The value was -11 ± 3 mmHg.

Q: What about the “Δ HR” value (male Wistar rats; 200 μg/kg i.v.) of the same molecule?
A: Its value is “+13 ± 2 beats/min”.

Q: What about the “Δ RF” value (male Wistar rats; 200 μg/kg i.v.) of the same molecule?
A: Its value is “+12 ± 2 acts/min”.

Q: And the Δ dp/dt (male Wistar rats; 200 μg/kg i.v.)?
A: The Δ dp/dt was “+1284 ± 78 mmHg/sec”.

Q: And the “Δ AP DIAST” value (male Wistar rats; 400 μg/kg i.v.)?
A: Its value is -14 ± 3 mmHg.

Q: What about the “Δ AP SYST” value (male Wistar rats; 400 μg/kg i.v.) of the same molecule?
A: Its value is -15 ± 4 mmHg.

Q: What about the “Δ HR” value (male Wistar rats; 400 μg/kg i.v.) of the same molecule?
A: Its value is “+14 ± 5 beats/min”.

Q: And the “Δ RF” value (male Wistar rats; 400 μg/kg i.v.)?
A: Its value is “+16 ± 3 acts/min”.

Q: And the Δ dp/dt (male Wistar rats; 400 μg/kg i.v.)?
A: Its Δ dp/dt is “+1712 ± 107 mmHg/sec”.

Q: What about the “Δ AP DIAST” value (male Wistar rats; 800 μg/kg i.v.) of the same molecule?
A: The value was -15 ± 3 mmHg.

Q: What about the “Δ AP SYST” value (male Wistar rats; 800 μg/kg i.v.) of the same molecule?
A: Its value is -17 ± 3 mmHg.

Q: What about the “Δ HR” value (male Wistar rats; 800 μg/kg i.v.) of the same molecule?
A: Its value is “+18 ± 4 beats/min”.

Q: What about the “Δ RF” value (male Wistar rats; 800 μg/kg i.v.) of the same molecule?
A: The value was “+25 ± 6 acts/min”.

Q: And the Δ dp/dt (male Wistar rats; 800 μg/kg i.v.)?
A: The Δ dp/dt was “+2140 ± 263 mmHg/sec”.

Q: What about the “Δ AP DIAST” value (male Wistar rats; 1600 μg/kg i.v.) of the same molecule?
A: Its value is -18 ± 4 mmHg.

Q: And the “Δ AP SYST” value (male Wistar rats; 1600 μg/kg i.v.)?
A: Its value is -21 ± 6 mmHg.

Q: And the “Δ HR” value (male Wistar rats; 1600 μg/kg i.v.)?
A: The value was “+22 ± 3 beats/min”.

Q: What about the “Δ RF” value (male Wistar rats; 1600 μg/kg i.v.) of the same molecule?
A: Its value is “+23 ± 9 acts/min”.

Q: And the Δ dp/dt (male Wistar rats; 1600 μg/kg i.v.)?
A: Its Δ dp/dt is “+2996 ± 104 mmHg/sec”.

Q: And the “Δ AP DIAST” value (male Wistar rats; 3200 μg/kg i.v.)?
A: The value was -29 ± 4 mmHg.

Q: What about the “Δ AP SYST” value (male Wistar rats; 3200 μg/kg i.v.) of the same molecule?
A: The value was -25 ± 5 mmHg.

Q: What about the “Δ HR” value (male Wistar rats; 3200 μg/kg i.v.) of the same molecule?
A: The value was “+25 ± 8 beats/min”.

Q: What about the “Δ RF” value (male Wistar rats; 3200 μg/kg i.v.) of the same molecule?
A: The value was “+26 ± 7 acts/min”.

Q: What about the Δ dp/dt (male Wistar rats; 3200 μg/kg i.v.) of the same molecule?
A: The Δ dp/dt was “+2984 ± 362 mmHg/sec”.

Q: What about the “Δ AP DIAST” value (male Wistar rats; 6400 μg/kg i.v.) of the same molecule?
A: The value was -29 ± 2 mmHg.

Q: What about the “Δ AP SYST” value (male Wistar rats; 6400 μg/kg i.v.) of the same molecule?
A: Its value is -34 ± 4 mmHg.

Q: And the “Δ HR” value (male Wistar rats; 6400 μg/kg i.v.)?
A: Its value is “+20 ± 4 beats/min”.

Q: And the “Δ RF” value (male Wistar rats; 6400 μg/kg i.v.)?
A: The value was “+29 ± 5 acts/min”.

Q: And the Δ dp/dt (male Wistar rats; 6400 μg/kg i.v.)?
A: The Δ dp/dt was “+3074 ± 441 mmHg/sec”.

Q: And the “effect on AP (in words)” value (male Wistar rats; i.v., 50-6400 μg/kg, rat)?
A: Its value is “lowers the value of AP according to a linear dependence on the dose”.

Q: What about the “effect on HR, dp/dt and RF (in words)” value (male Wistar rats; i.v., 50-6400 μg/kg, rat) of the same molecule?
A: The value was “causes an increase in the values of HR, dp/dt and RF”.

Q: What about the “cardiovascular and respiratory effects (in words)” value (male Wistar rats; i.v., rat) of the same molecule?
A: Its value is “giving hypotensive responses while increasing heart rate and inotropism as well as respiratory rate”.

Q: And the “changes in the tidal volume (TV) (in words)” value (male Wistar rats; i.v., rat)?
A: Its value is “a linear increase has been observed with the doses”.

Q: What about the “correlation with peripheral adrenergic receptors (α1-α2; β1-β2) (in words)” value (male Wistar rats; i.v., rat) of the same molecule?
A: The value was “do not seem to be correlated to significative actions of the active ingredient at the level of the peripheral adrenergic receptors”.
